Test results: patent US9593084B2 (Parion Sciences, Inc., priority 2012, dated 2017)
Marks after values point to notes of the source that are not given here.

How the values were obtained:
[1] = test system: Sheep MCC; assay: Mucociliary clearance (MCC) studies in sheep; type: in vivo
Summary of the method: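 Adult sheep, nasally intubated, received aerosolized test agent (4 mL, ± HS immediately after) over 10-15 min; 99mTc-sulfur colloid aerosol given 4 or 8 h later. Lung radioactivity counted by gamma camera every 5 min for 1 h; clearance analysed as initial 30-min slope, AUC over 1 h, and maximum 1-h clearance.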

[2] = Plasma potassium levels in sheep of the MCC study; type: in vivo
Procedure: In these studies, adult sheep were restrained and nasally intubated with an endotracheal tube. Aerosolized test articles were administered over 10-15 minutes to sheep. Radiolabeled ^99mTc-sulfur colloid (TSC, 3.1 mg/mL; containing approximately 20 mCi) was then administered at a specified time four or eight hours after test article. The radiolabeled aerosol was administered through the endotracheal tube for about 5 minutes. The sheep were then extubated, and total radioactive counts in the lung were measured every 5 minutes for a 1-hour observation period. The rate of radiolabel clearance from the lung is representative of the MCC rate in the animal. The advantage of this system is that it closely simulates the human lung environment. The model also allows for the collection of simultaneous PK/PD information through plasma and urine sampling over the test period. There are also several techniques to measure the drug concentrations on the airway surface during the MCC measurements. These include the collection of exhaled breath condensates or a filter paper method to obtain ASL via bronchoscopy.
The compound of Comparative Example 1 can be seen on page 15 of US 2005/0080093 and as Compound 2 on page 90 of WO 2008/031048, and as Compound 2 on pages 42-43 of WO 2008/031028. […] In order to evaluate this potential, it is beneficial to have MCC activity in vivo and not cause elevation of plasma potassium at the useful dose. One model to assess this is the sheep MCC model described below.

[3] = sheep, aerosol, 0.24 nmol/kg (3 μM), MCC at 4 h post-dose
[4] = sheep, aerosol, 0.24 nmol/kg (3 μM), MCC at 8 h post-dose

N=C(NCCCCc1ccc(C[C@H](N)C(=O)Nc2ccc(CCCN(C[C@H](O)[C@@H](O)[C@H](O)[C@H](O)CO)C[C@H](O)[C@@H](O)[C@H](O)[C@H](O)CO)cc2)c2ccccc12)NC(=O)c1nc(Cl)c(N)nc1N [Compound 33, 3,5-diamino-N—(N-(4-(4-((S)-2-amino-3-(4-(3-(bis((2S,3R,4R,5R)-2,3,4,5,6-pentahydroxyhexyl)amino)propyl)phenylamino)-3-oxopropyl)naphthalen-1-yl)butyl)carbamimidoyl)-6-chloropyrazine-2-carboxamide]
benefit to risk ratio ([1]; sheep MCC model): greater than 1000 | effect on MCC compared to vehicle ([1]; sheep, 0.24 nmol/kg (3 μM), 4 h post-dose): enhanced MCC compared to vehicle control | Initial Slope (4.0-4.5 h) ([1]; sheep, 0.240 nmol/kg (30 μM), MCC at 4 h post-dose): 37.5* (4) | AUC (% CI × h) ([1]; sheep, 0.240 nmol/kg, MCC at 4 h post-dose): 17.4* (4) % CI × h | effect of hypertonic saline (HS) on the MCC effect ([1]; sheep, 7% HS dosed immediately following 0.24 nmol/kg, MCC eight hours after combined dosing): HS increased the effect of Compound 33 on MCC | duration of action on MCC vs. vehicle ([1]; sheep, 8 hours post dose): enhanced duration action of MCC vs. vehicle | AUC (% Cl-h) [1, 3]: 17.4* (4) % Cl-h | Initial Slope (4.0-4.5 h) [1, 3]: 37.5* (4) | AUC (% Cl-h) [1, 4]: 11.7* (4) % Cl-h | Initial Slope (8.0-8.5 h) [1, 4]: 25.8* (4) | MCC Highest Submaximal Dose ([1]; sheep, solution concentration given beside the dose): <0.24 nmol/kg (3 μM) | Therapeutic Ratio (Benefit/Risk) ([1]; sheep, top dose without plasma potassium elevation vs MCC highest submaximal dose): >100 | effect on plasma potassium ([2]; sheep of the MCC study, at efficacious dose): free of potassium elevations | Therapeutic Index, times greater renal safety than Comparative Example 1 ([2]; sheep, versus Comparative Example 1): more than 1,000
